Values quoted from earlier work, collected in US8754096B2, “Piperidinone carboxamide azaindane CGRP receptor antagonists” (Merck Sharp & Dohme Corp., priority 2010, dated 2014).

Test system: migraine
Conditions: phase III clinical trials, orally bioavailable

Structure (SMILES): O=C(N[C@@H]1CC[C@@H](c2cccc(F)c2F)CN(CC(F)(F)F)C1=O)N1CCC(n2c(=O)[nH]c3ncccc32)CC1 [telcagepant]
- antimigraine effectiveness: shown antimigraine effectiveness
